Entries after “also recorded” stand apart in the source; their conditions may differ. Where two headings read alike, the source gives them in different places.
Assays:
[1] = test system: human IL6-stimulated tyrosine phosphorylation of STAT3; experiment: IL6-stimulated STAT3 phosphorylation in human primary hepatocytes (specificity control); assay type: cell-based
mouse leptin = mouse leptin (Mus musculus, UniProt P41160); experiment: IC50 for human CRP against mouse leptin (leptin binding to OB-Rb HEK293 cells); conditions: in the presence of about 2 ng/ml mouse leptin
mouse leptin, sequence (P41160 22-167): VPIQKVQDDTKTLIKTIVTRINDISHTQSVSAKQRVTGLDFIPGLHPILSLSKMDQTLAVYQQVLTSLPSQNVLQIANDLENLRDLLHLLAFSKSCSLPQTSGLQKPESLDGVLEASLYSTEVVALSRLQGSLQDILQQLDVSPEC

[2] = test system: mouse leptin-induced STAT3 activation; experiment: Leptin-induced STAT3 tyrosine phosphorylation in HEK293 cells expressing OB-Rb, mouse leptin; assay type: cell-based; conditions: murine leptin 2 nM
Protocol: (§1) 2. Signaling Studies: A HEK293 cell line stably expressing the human long-form receptor, OB-Rb (M. Friedman-Einat et al., 2003, Regul. Pept. 111, 77) was serum starved for 2-h before addition of leptin and CRP. Leptin (SEQ ID NO:4), in the presence or absence of C-reactive proteins, was pre-incubated in μ-MEM for 30 minutes at 37° C. before applied to the cells. After a 30-incubation with leptin (SEQ ID NO:4), the cells were harvested in a previously described protein lysis buffer. A. Z. Zhao et al., 1997, Proc. Natl. Acad. Sci. U.S.A. 94, 322. The protein extract was subjected to a western blot assay with an anti-phospho-STAT3 specific antibody (Cell Signaling, Beverly, Mass.). For studies involving the primary hypothalamic neurons, the rat hypothalamus was surgically isolated right after euthanasia, and immediately placed in the DMEM for incubation with leptin in the presence or absence of CRP.
(§2) To determine if the interaction between CRP and leptin influences cellular actions of leptin, we assessed the ability of leptin to stimulate tyrosine phosphorylation of STAT3 and PI3-kinase activity in the presence of CRP in vitro.

human leptin [3] = target: T1, human leptin (Homo sapiens, UniProt P41159); experiment: Immunoprecipitation of human CRP with human leptin; assay type: binding; conditions: leptin/CRP mixture and human serum
T1 sequence (P41159 22-167): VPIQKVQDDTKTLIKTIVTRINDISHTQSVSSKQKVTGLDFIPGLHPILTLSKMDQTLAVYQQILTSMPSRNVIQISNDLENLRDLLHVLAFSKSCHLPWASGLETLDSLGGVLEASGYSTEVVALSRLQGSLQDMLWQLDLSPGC
Protocol: Direct binding of […] and leptin in an immunoprecipitation assay was determined. Rat CRP was purified from fresh rat serum to >95% employing a previously established affinity-purification protocol. J. Tseng et al., 1988, Mol. Immunol. 25, 679. This purity is very similar to the human CRP preparation obtained from a commercial source (CHEMICON International). The purified human- and rat-CRP proteins were pre-mixed with recombinant human and mouse leptin, respectively, before addition of specific antibodies against human- and mouse-leptin. The concentrations of CRP and leptin in the precipitation reaction were all within the physiological ranges (M. B. Schulze et al., 2004, Diabetes Care 27, 889; T. Kazumi et al., 2003, Metabolism 52, 1113).
In parallel experiments, recombinant leptin was also pre-mixed with human- or rat serum to allow for potential direct interactions prior to immunoprecipitation. The precipitation pellets obtained were subjected to western blot assays with specific anti-CRP antibodies. […] Because of the similarities between rat CRP and human CRP in the binding to leptin and of our main interest in the relevance to human obesity, focus was placed on potential functional effects of human CRP in the subsequent experiments.

[4] = Serum levels of infused human CRP and human leptin in ob/ob mice (ELISA); assay type: in vivo, mouse
Protocol: (§3) 3(b) Assessment of serum leptin insulin, and CRP: Human- and mouse-leptin concentrations were measured with the ELISA kit from CHEMICON (Temecular, Calif.) and R&D Systems (Minneapolis, Minn.), respectively, according to the instructions of the manufacturer. Serum mouse insulin concentrations were determined with an ELISA assay (LINCO Research, St. Charles, Mo.). Human CRP concentrations were also evaluated with an ELISA kit (Alpha Diagnostics International, San Antonio, Tex.).

ob/ob mice = experiment: Infusion of human CRP and/or human leptin by osmotic pumps into ob/ob mice; assay type: in vivo, mouse; conditions: for body weight / food-intake: human CRP alone, without co-infusion of leptin; for effect on leptin-regulated body weight / effect on leptin-regulated food-intake: 6 days
Protocol: 3(a). In vivo assessment of CRP functions: The micro-osmotic pumps (#1007D, DURECT, Cupertino, Calif.) were subcutaneously imbedded in the ob/ob or wild-type mice according to the instructions of the manufacturer. The osmotic pumps were pre-filled with saline, CRP, leptin or leptin plus CRP. Food-intake (24-h), body weight, and body temperature were monitored daily post-surgery. Blood glucose concentrations were measured from the tail-vein blood samples right before and at the end of infusion with a Precision Plus glucose meter (Medisense, Abbot Park, Ill.).
as §3
3(c) Measurement of serum- and tissue-triglycerides: Serum- and tissue-triglycerides were determined with the protocols described in J. N. Huan et al., 2003, J. Biol. Chem. 278, 45638. […]

[5] = test system: insulin-stimulated PI3-kinase; experiment: Insulin-stimulated PI3-kinase activity in differentiated 3T3-L1 adipocytes (specificity control); assay type: cell-based
human leptin [6] = target: T1, human leptin; experiment: IC50 for human CRP against human leptin (125I-leptin binding to OBR-expressing HEK293 cells); conditions: in the presence of about 2 ng/ml human leptin
Protocol: 4. Measurement of IC50 for human CRP against human leptin: Human leptin was iodinated with Na^125I using the lodogen method. Briefly, 15 μg of human leptin in 100 mM Phosphate buffer pH 7.5 were incubated with 1 mCi of carrier-free Na^125I (2200 Ci/mmol) in a glass tube containing 50 μg Iodogen. After 10 minute incubation at room temperature, the reaction was stopped with 100 μl 0.1% trifluoroacetic acid (TFA). The reaction mixture was immediately purified by reverse-phase HPLC. The separation employed a 5 minute isocratic step at 20% eluant B in A, followed by two consecutive 30 minute linear gradients from 20 to 50%, then from 50 to 60% eluant B in A (where eluant A is water containing 0.1% TFA and eluant B is acetonitrile containing 0.1% TFA) at a flow rate of 1.5 ml/min. The ^125I-labeled leptin (˜2 ng/ml) was pre-incubated with various concentrations of human CRP in 1 ml of μ-MEM for 30 minute before added to the OBR-expressing HEK293 cells. The incubation would last for 3 hours at 4° C. before the media was aspirated and the cells were dissolved in 0.1N NaOH for scintillation counting.
To examine if human CRP interferes with the binding of human leptin to its receptors, we used a HEK293 cell line stably transfected with the long-form human leptin receptor, OB-Rb. The characterization of this cell line has been reported in earlier studies. M. Friedman-Einat et al., 2003, Regul. Pept. […]

[7] = test system: leptin-induced tyrosine phosphorylation of STAT3; experiment: Leptin-induced STAT3 tyrosine phosphorylation in HEK293 cells expressing OB-Rb (western blot), human leptin; assay type: cell-based; conditions: for effect on leptin-induced tyrosine phosphorylation of STAT3: human leptin 2 nM, protein pre-incubated with leptin, HEK293 OB-Rb cells
Protocol: as §1, §2

[8] = test system: leptin signaling in rat primary hypothalamic neurons; experiment: Leptin signaling (phospho-STAT3 and PI3-kinase assays) in rat primary hypothalamic neurons; assay type: cell-based; conditions: human leptin, rat primary hypothalamic ex-plants
Protocol: as §1
Previous studies have reported a requirement of both JAK-STAT and PI3-kinase pathways in mediating leptin signaling within the hypothalamus. C. Vaisse et al., 1996, Nat. Genet. 14, 95; A. Z. Zhao et al., 2002, Nat. Neurosci. 5, 727; K. D. Niswender et al., 2001, Nature 413, 794. The effects of human CRP on leptin signaling in rat primary hypothalamic ex-plants were also tested (FIG. 4D).

[9] = human CRP high dosage 40 μg/day co-infused with human leptin
[10] = human CRP high dosage co-infused with leptin
[11] = human CRP low dosage 10 μg/day co-infused with human leptin

human CRP: human C-reactive protein preparation obtained from a commercial source (CHEMICON International)
effect on IL6-stimulated tyrosine phosphorylation of STAT3 [1]: did not suppress IL-6 induced activation of STAT3
effect on IL6-stimulated tyrosine phosphorylation of STAT3 ([1]; listed as Human CRP): does not affect human IL6-stimulated tyrosine phosphorylation of STAT3
IC50 of human CRP towards mouse leptin (mouse leptin): greater than 64 μg/ml
effect on mouse leptin-induced STAT3 phosphorylation [2]: less efficient in blocking the signaling capacity of mouse leptin; also recorded: unable to block leptin-induced STAT3 activation
direct binding to human leptin (immunoprecipitation with anti human-leptin, anti-CRP western blot) (human leptin [3]): could pull down human CRP
serum concentration of human CRP ([4]; end of infusion, human CRP 48 μg/day/mouse): 850 ± 100 ng/mL
serum concentrations of human CRP attained ([4]; human CRP infused at 10 or 40 μg/day): well within the physiological range observed in human plasma
leptin-stimulated STAT3 activation in hypothalamic tissues (ob/ob mice; high dose CRP co-infused with leptin): blocked by co-infusion of CRP with leptin
body weight (ob/ob mice): did not affect food-intake or body weight
food-intake (ob/ob mice): did not affect food-intake or body weight
body weight (ob/ob mice; listed as CRP): does not influence food-intake and body-weight
food-intake (ob/ob mice; listed as CRP): does not influence food-intake and body-weight
effect on leptin-regulated body weight (ob/ob mice; [9]): completely blocked the actions of leptin to restrain appetite and induce weight loss; also recorded: completely blocked the effects of leptin
effect on leptin-regulated food-intake (ob/ob mice; [9]): completely blocked the actions of leptin to restrain appetite and induce weight loss; also recorded: completely blocked the effects of leptin
effect on leptin-regulated rectal temperature (ob/ob mice; human CRP high dosage co-infused with human leptin): attenuation of leptin-induced energy expenditure; also recorded: completely blocked the effects of leptin on rectal temperature
effect on leptin-induced change in blood glucose (ob/ob mice; [10]): blocked these effects of leptin; also recorded: completely blocked leptin-induced beneficial effects
effect on leptin-induced change in hepatic triglycerides (ob/ob mice; [10]): blocked these effects of leptin; also recorded: completely blocked leptin-induced beneficial effects
effect on leptin-induced change in serum insulin (ob/ob mice; [10]): blocked these effects of leptin; also recorded: completely blocked leptin-induced beneficial effects
effect on leptin-induced change in serum triglycerides (ob/ob mice; [10]): blocked these effects of leptin; also recorded: completely blocked leptin-induced beneficial effects
effect on leptin-regulated body weight (ob/ob mice; [11]): only partially attenuated these effects of human leptin; also recorded: only partially blocked leptin's effect
effect on leptin-regulated food-intake (ob/ob mice; [11]): only partially attenuated these effects of human leptin; also recorded: only partially blocked leptin's effect
effect on insulin-stimulated PI3-kinase activity [5]: did not suppress; also recorded: does not affect insulin-stimulated PI3-kinase activity
IC50 of CRP for reduction of 125I-labeled human leptin binding to its receptors (human leptin [6]): approximately 80 ng/ml
calcium dependence of attenuation of leptin signaling ([7]; excess EGTA added to the incubation medium): requires the presence of calcium ions
effect on leptin-induced tyrosine phosphorylation of STAT3 [7]: attenuate the tyrosine-phosphorylation of STAT3; also recorded: Attenuating effects; also recorded: caused the reduction of leptin-stimulated STAT3 activation
effect on leptin-induced tyrosine phosphorylation of STAT3 ([7]; listed as Human CRP): suppressed the activation of STAT3 by leptin
effect on leptin signaling (phospho-STAT3 and PI3-kinase) [8]: inhibited leptin signaling in primary hypothalamic neurons

— patent US7629315B2, “Compositions for blocking the inhibitory effect of human CRP on human leptin” (University of Pittsburgh of the Commonwealth System of …, priority 2005, dated 2009)
